Where “and” joins values, the source holds several entries; their conditions need not be identical. Equal entries are not always repeated.

Results on 5 molecules are retold here after patent US8357504B2, “Method and kit for the microbiological determination of vitamins in substance mixtures” (IFP Privates Institut fur Produktqualitat GmbH, priority 2004, dated 2013).

Holding throughout (format): cell-based
Conditions in all cases: for Average value (measurement at 630 nm): number 3; for Measurement at 630 nm: single well

The subject of assay [1] is Saccharomyces cerevisae ATCC 9080. Description: Microbiological B6 pyridoxine determination (growth turbidity, pyridoxine-Y-medium). On the procedure:
The preparation of the microtitration plate and the determination of B6-pyridoxine was effected as in Example 1, except only that as test organism Saccharomyces cerevisae ATCC 9080 was employed. As assay medium there was employed Difco™ pyridoxine-Y-medium, containing dextrose 40.0 g/L, L-asparagine 4.0 g/L, ammonium sulfate 4.0 g/L potassium dihydrogen phosphate 3.0 g/L, magnesium sulfate 1.0 g/L, calcium chloride 0.49 g/L, DL-methionine 40.0 mg/L, DL-tryptophane 40.0 mg/L, DL-isoleucin 40.0 mg/L, DL-valin 40.0 mg/L, L-histidine hydrochloride 20.0 mg/L, riboflavin 20.0 mg/L, biotin 8.0 mg/L, inositol 5.0 mg/L, iron sulfate 500 μg/L, thiamine hydrochloride 400.0 μg/L, calcium pantothenate 400.0 μg/L, nicotinic acid 400.0 μg/L, boric acid 200.0 μg/L, potassium iodide 200.0 μg/L, ammonium molybdate 40.0 μg/L, manganese sulfate 80.0 μg/L, copper sulfate 90.0 μg/L, zinc sulfate 80.0 μg/L. The storage medium further contained 200 mM trehalose.

In assay [2] the test system is Lactobacillus rhamnosus ATCC 7469. Description: Microbiological folic acid determination (growth turbidity, folic acid-casein medium). The source says:
The preparation of the microtitration plate and the determination of folic acid (pteroylglutaminic acid and other folic acid conjugates) was effected as in Example 1, except only that Lactobacillus rhamnosus ATCC 7469 was employed as test organism. There was employed as assay medium Difco™ folic acid-casein medium, containing activated carbon treated pancreas digested casein 10.0 g/L, dextrose 40.0 g/L, sodium acetate 40.0 g/L, potassium dihydrogen phosphate 1.0 g/L, dipotassium hydrogen phosphate 1.0 g/L, DL-tryptophane 0.2 g/L, L-asparagine 0.6 g/L, L-cystein hydrochloride 0.5 g/L, adenine sulfate 10.0 mg/L, guanine hydrochloride 10.0 mg/L, uracil 10.0 mg/L, xanthin 20.0 mg/L, Polysorbate-80 0.1 g/L, glutathion (reduced) 5.0 mg/L, magnesium sulfate 0.2 g/L, sodium chloride 20.0 mg/L, iron sulfate 20.0 mg/L, manganese sulfate 15.0 mg/L, riboflavin 1.0 mg/L, p-aminobenzoic acid 2.0 mg/L, pyridoxine hydrochloride 4.0 mg/L, thiamine hydrochloride 400.0 μg/L, calcium pantothenate 800.0 μg/L, nicotinic acid 800.0 μg/L, biotin 20.0 μg/L, 0.05% ascorbic acid. The storage medium contained 200 mM trehalose. The folic acid standard was dissolved in 100 mMol potassium phosphate buffer, pH 6.1, 0.1% ascorbic acid.

In assay [3] the test system is Lactobacillus delbrueckii subsp. Lactis (L. leichmanii) ATCC 7830. Put plainly: Microbiological vitamin B12 determination (growth turbidity, B12 assay medium). The source says:
The preparation of the microtitration plate and the determination of vitamin B12 (cyanocobalamine, hydroxycobalamine) was effected as in Example 1, except only that Lactobacillus delbrueckii subsp. Lactis (L. leichmanii) ATCC 7830 was employed as test organism. As assay medium there served Difco™ B12 assay medium, containing casamino acids 15.0 g/L, dextrose 40.0 g/L, asparagine 0.2 g/L, sodium acetate 20.0 g/L, Ascorbic acid 4.0 g/L, L-cystein 4.0 g/L, DL-tryptophane 0.4 g/L, adenine sulfate 20.0 mg/L, guanine hydrochloride 20.0 mg/L, uracil 20.0 mg/L, xanthin 20.0 mg/L, polysorbate-80 2.0 g/L, magnesium sulfate (water-free) 0.4 mg/L, sodium chloride 20.0 mg/L, iron sulfate 20.0 mg/L, manganese sulfate 20.0 mg/L, riboflavin 1.0 mg/L, p-aminobenzoic acid 2.0 mg/L, pyridoxine hydrochloride 4.0 mg/L, thiamine hydrochloride 1.0 mg/L, calcium pantothenate 1.0 mg/L, niacin 2.0 mg/L, biotin 10.0 ug/L, pyridoxine hydrochloride 4.0 mg/L, pyridoxal hydrochloride 4.0 mg/L, pyridoxamine hydrochloride 800.0 ug/L, […], potassium dihydrogen phosphate 1.0 g/L, dipotassium hydrogen phosphate 1.0 g/L. The storage medium further contained 200 mM trehalose.

Assay [4] relates to Lactobacillus planatarum ATTC 8014. Put plainly: Microbiological calcium pantothenate determination (growth turbidity). On the procedure: [table] The preparation of the microtitration plate and the determination of […] 800 μg/L, p-aminobenzoic acid 200.0 μg/L, biotin 1.0 μg/L, potassium dihydrogen phosphate 1.0 g/L, dipotassium hydrogen phosphate 1.0 g/L, magnesium sulfate 0.4 g/L, sodium chloride 20.0 mg/L, iron sulfate 20.0 mg/L, manganese sulfate 20.0 mg/L. The storage medium further contained 200 mM trehalose.

In assay [5] the test system is Lactobacillus plantarum ATCC 8014. Description: Microbiological biotin determination (growth turbidity, biotin assay medium). On the procedure:
The preparation of the microtitration plate and determination of biotin was effected as in Example 1 with Lactobacillus plantarum ATCC 8014. There served as assay medium Difco™ biotin assay medium, containing casamino acids 12.0 g/L, dextrose 40.0 g/L, sodium acetate 20.0 g/L, L-cystein 0.2 g/L, DL-tryptophane 0.2 g/L, adenine sulfate 20.0 mg/L, guanine hydrochloride 20.0 mg/L, uracil 20.0 mg/L, thiamine hydrochloride 2.0 mg/L, riboflavin 2.0 mg/L, niacin 2.0 mg/L, calcium pantothenate 2.0 mg/L, pyridoxine hydrochloride 4.0 mg/L, p-aminobenzoic acid 0.2 mg/L, magnesium sulfate (water-free) 0.4 mg/L, sodium chloride 20.0 mg/L, iron sulfate 20.0 mg/L, manganese sulfate 20.0 mg/L, potassium dihydrogen phosphate 1.0 g/L, dipotassium hydrogen phosphate 1.0 g/L. The storage medium further contain 200 mM trehalose. The determined standard curve is show in FIG. 4.

Setting [6] is: B6-pyridoxine standard 0.004 mg/100 g.
Setting [7] is: B6-pyridoxine standard 0.008 mg/100 g.
Where [8] appears, read: B6-pyridoxine standard 0.012 mg/100 g.
The mark [9] stands for this setting: B6-pyridoxine standard 0.016 mg/100 g.
Where [10] appears, read: B6-pyridoxine standard 0.024 mg/100 g.
The mark [11] stands for this setting: folic acid standard 3.75 pg/150 μl (0.25 μg/100 g).
Setting [12] is: folic acid standard 7.5 pg/150 μl (0.5 μg/100 g).
[13] abbreviates: folic acid standard 15 pg/150 μl (1 μg/100 g).
Setting [14] is: folic acid standard 22.5 pg/150 μl (1.5 μg/100 g).
Setting [15] is: folic acid standard 30 pg/150 μl (2 μg/100 g).
Setting [16] is: vitamin B12 standard 0.1 μg/100 g.
The mark [17] stands for this setting: vitamin B12 standard 0.2 μg/100 g.
The mark [18] stands for this setting: vitamin B12 standard 0.3 μg/100 g.
[19] abbreviates: vitamin B12 standard 0.4 μg/100 g.
[20] abbreviates: vitamin B12 standard 0.8 μg/100 g.
Setting [21] is: Ca pantothenate standard 0.08 mg/100 g.
The mark [22] stands for this setting: Ca pantothenate standard 0.16 mg/100 g.
[23] abbreviates: Ca pantothenate standard 0.32 mg/100 g.
Where [24] appears, read: Ca pantothenate standard 0.48 mg/100 g.
The mark [25] stands for this setting: Ca pantothenate standard 0.64 mg/100 g.

Consider `Cc1ncc(CO)c(CO)c1O` [B6-pyridoxine, pyridoxine], for which the “Average value (measurement at 630 nm)” value is given as 0.299 in assay [1] (setting [6]); 0.4 in assay [1] (setting [7]); 0.538 in assay [1] (setting [8]); 0.753 in assay [1] (setting [9]); 1.069 in assay [1] (setting [10]). Besides, the “Measurement at 630 nm” value is 0.298 and 0.297 and 0.301 in assay [1] (setting [6]); 0.407 and 0.398 and 0.394 in assay [1] (setting [7]); 0.522 and 0.541 and 0.552 in assay [1] (setting [8]); 0.73 and 0.766 and 0.762 in assay [1] (setting [9]); 1.049 and 1.088 and 1.07 in assay [1] (setting [10]).
As for `Nc1nc2ncc(CNc3ccc(C(=O)N[C@@H](CCC(=O)O)C(=O)O)cc3)nc2c(=O)[nH]1` [Folic acid, folic acid], the “Average value (measurement at 630 nm)” value in assay [2] (setting [11]) is 0.264; in assay [2] (setting [12]), 0.545; in assay [2] (setting [13]), 0.793; in assay [2] (setting [14]) it was 0.999; in assay [2] (setting [15]) it was 1.094. For the same molecule, the “Measurement at 630 nm” value is 0.269 and 0.261 in assay [2] (setting [11]); 0.556 and 0.536 and 0.544 in assay [2] (setting [12]); 0.784 and 0.788 and 0.807 in assay [2] (setting [13]); 0.986 and 1.002 and 1.01 in assay [2] (setting [14]); 1.121 and 1.074 and 1.087 in assay [2] (setting [15]).
For cyanocobalamine [Vitamin B12], the “Average value (measurement at 630 nm)” value in assay [3] (setting [16]) was found to be 0.268; in assay [3] (setting [17]) it was 0.515; in assay [3] (setting [18]), 0.728; in assay [3] (setting [19]), 0.869; in assay [3] (setting [20]), 1.069. Besides, the “Measurement at 630 nm” value is 0.264 and 0.271 and 0.269 in assay [3] (setting [16]); 0.51 and 0.503 and 0.531 in assay [3] (setting [17]); 0.727 and 0.721 and 0.736 in assay [3] (setting [18]); 0.88 and 0.863 and 0.865 in assay [3] (setting [19]); 1.086 and 1.073 and 1.048 in assay [3] (setting [20]).
Turning to calcium pantothenate [Ca pantothenate], the “Average value (measurement at 630 nm)” value in assay [4] (setting [21]) turned out to be 0.076; in assay [4] (setting [22]), 0.179; in assay [4] (setting [23]) it was 0.395; in assay [4] (setting [24]) it was 0.491; in assay [4] (setting [25]) it was 0.59. Besides, the “Measurement at 630 nm” value was 0.075 and 0.08 and 0.073 in assay [4] (setting [21]); 0.179 and 0.178 and 0.181 in assay [4] (setting [22]); 0.389 and 0.404 and 0.392 in assay [4] (setting [23]); 0.49 and 0.493 and 0.491 in assay [4] (setting [24]); 0.589 and 0.594 and 0.588 in assay [4] (setting [25]).
For the molecule `O=C(O)CCCC[C@@H]1SC[C@@H]2NC(=O)N[C@@H]21` [Biotin, biotin], the “Average value (measurement at 630 nm)” value in assay [5] (biotin standard 0.003 μg/100 g) amounted to 0.204; in assay [5] (biotin standard 0.009 μg/100 g), 0.499; in assay [5] (biotin standard 0.015 μg/100 g), 0.685; in assay [5] (biotin standard 0.021 μg/100 g), 0.823; in assay [5] (biotin standard 0.027 μg/100 g), 0.985. Further, the “Measurement at 630 nm” value in assay [5] (biotin standard 0.003 μg/100 g) is 0.205 and 0.204 and 0.203; in assay [5] (biotin standard 0.009 μg/100 g), 0.506 and 0.5 and 0.491; in assay [5] (biotin standard 0.015 μg/100 g), 0.676 and 0.693 and 0.686; in assay [5] (biotin standard 0.021 μg/100 g), 0.826 and 0.822 and 0.82; in assay [5] (biotin standard 0.027 μg/100 g) it was 0.986 and 0.988 and 0.982.
